Measured values as given in US9102591B2, “Benzamides” (H. Lundbeck A/S, priority 2012, dated 2015).
Read-outs that look alike come from different tables or passages of the source.

Target: P2X7 receptor (Homo sapiens (Human), UniProt Q99572)
Test: P2X7 FLIPR assay (BzATP-stimulated calcium fluorescence, antagonist IC50)
Type: cell-based
In short: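 Cells expressing P2X7 receptor (human, rat or mouse), plated 24 hours earlier in low-serum medium, loaded with Fluo-4 NW dye (30 min 37° C, 30 min room temperature).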

Chain of P2X7 receptor (Q99572 whole entry): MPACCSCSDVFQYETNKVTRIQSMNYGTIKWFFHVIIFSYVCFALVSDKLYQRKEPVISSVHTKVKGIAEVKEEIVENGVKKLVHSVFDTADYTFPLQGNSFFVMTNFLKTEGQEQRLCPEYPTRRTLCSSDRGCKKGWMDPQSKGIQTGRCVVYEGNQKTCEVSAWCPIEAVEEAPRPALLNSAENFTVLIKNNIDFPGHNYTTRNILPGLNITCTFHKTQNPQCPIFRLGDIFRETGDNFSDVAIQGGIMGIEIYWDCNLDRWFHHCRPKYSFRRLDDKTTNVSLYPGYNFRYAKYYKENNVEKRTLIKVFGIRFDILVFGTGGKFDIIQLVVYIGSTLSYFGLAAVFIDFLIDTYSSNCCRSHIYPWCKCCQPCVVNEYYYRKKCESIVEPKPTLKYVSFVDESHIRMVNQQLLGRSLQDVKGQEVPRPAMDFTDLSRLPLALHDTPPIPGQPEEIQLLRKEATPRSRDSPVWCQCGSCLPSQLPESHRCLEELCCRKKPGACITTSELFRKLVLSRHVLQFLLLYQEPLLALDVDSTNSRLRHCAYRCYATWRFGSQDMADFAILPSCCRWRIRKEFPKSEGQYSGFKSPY

| SMILES | IC50 | IC50 (listed as (+)N-[3-cyclopropyl-2-[6-(trifluoromethyl)-3-pyridyl]propyl]-2-methoxy-benzamide) |
| --- | --- | --- |
| O=C(NCC(CC1(C(F)(F)F)CC1)c1ccc(C(F)(F)F)nc1)c1ccccc1Cl (stereo not shown) [2-chloro-N-[3-[1-(trifluoromethyl)cyclopropyl]-2-[6-(trifluo] [2-chloro-N-[3-[1-(trifluoromethyl)cyclopropyl]-2-[6-(trifluoromethyl)-3-pyridyl]propyl]benzamide] | 2.1 nM | – |
| Cc1ncc(C2(C(C)NC(=O)c3cccc(F)c3Cl)CCOCC2)cn1 (stereo not shown) [2-chloro-3-fluoro-N-[1-[4-(2-methylpyrimidin-5-yl)tetrahydropyran-4-yl]ethyl]benzamide] | 15 nM | – |
| Cc1ncc(C(CNC(=O)c2cccc(F)c2Cl)c2ccncc2)cn1 (stereo not shown) [2-chloro-3-fluoro-N-[2-(2-methylpyrimidin-5-yl)-2-(4-pyridyl)ethyl]benzamide] | 860 nM | – |
| O=C(NCC(CC1CC1)c1ccc(C(F)(F)F)nc1)c1ccccc1Cl (single isomer, unassigned; (-)) [Example 4b, (−)-2-Chloro-N-[3-cyclopropyl-2-[6-(trifluoromethyl)-3-pyridyl]propyl]benzamide] | 2.3 nM | – |
| Cc1ncc(C2(C(C)NC(=O)c3cccc(Cl)c3Cl)CCC(F)(F)CC2)cn1 (stereo not shown) [2,3-dichloro-N-[1-[4,4-difluoro-1-(2-methylpyrimidin-5-yl)cyclohexyl]ethyl]benzamide] | 960 nM | – |
| O=C(NCC(CC1(C(F)(F)F)CC1)c1ccc(C(F)(F)F)nc1)c1ccccc1Cl (single isomer, unassigned; (-)) [(−)2-chloro-N-[3-[1-(trifluoromethyl)cyclopropyl]-2-[6-(trif] [(−)2-chloro-N-[3-[1-(trifluoromethyl)cyclopropyl]-2-[6-(trifluoromethyl)-3-pyridyl]propyl]benzamide] | 32 nM | – |
| Cc1ccc(C(CNC(=O)c2cccc(C)c2C)CC(C)C)cn1 (stereo not shown) [2,3-Dimethyl-N-[4-methyl-2-(6-methyl-pyridin-3-yl)-pentyl]-benzamide] | 4.4 nM | – |
| O=C(NCC(c1cnc(C(F)(F)F)nc1)C1CCC(F)(F)CC1)c1c(F)cccc1Cl (single isomer, unassigned; (-)) [(−)2-chloro-N-[2-(4,4-difluorocyclohexyl)-2-[2-(trifluoromet] [(−)2-chloro-N-[2-(4,4-difluorocyclohexyl)-2-[2-(trifluoromethyl)pyrimidin-5-yl]ethyl]-6-fluoro-benzamide] | 61 nM | – |
| O=C(NCC1(c2ccc(Cl)cc2)CCOCC1)c1cc(Br)ccc1Cl [5-Bromo-2-chloro-N-[4-(4-chloro-phenyl)-tetrahydro-pyran-4-ylmethyl]-benzamide] | 130 nM | – |
| CS(=O)(=O)c1ccc(Cl)c(C(=O)NCC2(c3ccc(F)nc3)CCC(F)(F)CC2)c1 [2-chloro-N-((4,4-difluoro-1-(6-fluoropyridin-3-yl)cyclohexyl)methyl)-5-(methylsulfonyl)benzamide] | 8.7 nM | – |
| CS(=O)(=O)c1ccccc1C(=O)NCC1(c2ccc(C(F)(F)F)nc2)CCC(F)(F)CC1 [N-((4,4-difluoro-1-(6-(trifluoromethyl)pyridin-3-yl)cyclohexyl)methyl)-2-(methylsulfonyl)benzamide] | 480 nM | – |
| O=C(NCC(CC1CC1)c1cnc(C(F)(F)F)nc1)c1ccccc1Cl (single isomer, unassigned; (-)) [(−)2-chloro-N-[3-cyclopropyl-2-[2-(trifluoromethyl)pyrimidin] [(−)2-chloro-N-[3-cyclopropyl-2-[2-(trifluoromethyl)pyrimidin-5-yl]propyl]benzamide] | 3.2 nM | – |
| CC(CNC(=O)c1ccccc1Cl)(CC1CC1)c1cnc(C(F)(F)F)nc1 (stereo not shown) [2-chloro-N-[3-cyclopropyl-2-methyl-2-[2-(trifluoromethyl)pyr] [2-chloro-N-[3-cyclopropyl-2-methyl-2-[2-(trifluoromethyl)pyrimidin-5-yl]propyl]benzamide] | 21 nM | – |
| CC(C)(O)c1ccc(C(CNC(=O)c2cccc(Cl)c2Cl)CC2CC2)cn1 (single isomer, unassigned; (+)) [(+)2,3-dichloro-N-[3-cyclopropyl-2-[6-(1-hydroxy-1-methyl-et] [(+)2,3-dichloro-N-[3-cyclopropyl-2-[6-(1-hydroxy-1-methyl-ethyl)-3-pyridyl]propyl]benzamide] | 740 nM | – |
| Cc1cn(C2(CNC(=O)c3cccc(Cl)c3Cl)CCC(F)(F)CC2)cn1 [2,3-dichloro-N-((4,4-difluoro-1-(4-methyl-1H-imidazol-1-yl)cyclohexyl)methyl)benzamide] | 90 nM | – |
| O=C(NCC(CC1(C(F)(F)F)CC1)c1ccc(C2CC2)nc1)c1ccccc1F (stereo not shown) [N-[2-(6-cyclopropyl-3-pyridyl)-3-[1-(trifluoromethyl)cyclopropyl]propyl]-2-fluoro-benzamide] | 1700 nM | – |
| Cc1ccc(C(CNC(=O)c2cccc(Cl)c2Cl)CC(C)C)cn1 (stereo not shown) [2,3-Dichloro-N-[4-methyl-2-(6-methyl-pyridin-3-yl)-pentyl]-benzamide] | 1 nM | – |
| O=C(NCC1(c2ccc(F)nc2)CCC(F)(F)CC1)c1cccc(F)c1Cl [2-chloro-N-((4,4-difluoro-1-(6-fluoropyridin-3-yl)cyclohexyl)methyl)-3-fluorobenzamide] | 5.3 nM | – |
| O=C(NCC(CC1CC1)c1cnc(C(F)F)nc1)c1cccc(Cl)c1Cl (single isomer, unassigned; (+)) [(+)2,3-dichloro-N-[3-cyclopropyl-2-[2-(difluoromethyl)pyrimi] [(+)2,3-dichloro-N-[3-cyclopropyl-2-[2-(difluoromethyl)pyrimidin-5-yl]propyl]benzamide] | 23 nM | – |

| SMILES | IC50 | IC50 (listed as (+)N-[3-cyclopropyl-2-[6-(trifluoromethyl)-3-pyridyl]propyl]-2-methoxy-benzamide) |
| --- | --- | --- |
| COc1ccc(C2(CNC(=O)c3cccc(Cl)c3Cl)CCCC2)cc1 [2,3-Dichloro-N-[1-(4-methoxy-phenyl)-cyclopentylmethyl]-benzamide] | 260 nM | – |
| O=C(NCC(c1ccc(Cl)cc1)C1CCOCC1)c1ccccc1Cl (stereo not shown) [2-chloro-N-[2-(4-chlorophenyl)-2-tetrahydropyran-4-yl-ethyl]benzamide] | 14 nM | – |
| O=C(NCC(CC1(F)CC1)c1ccc(C(F)(F)F)nc1)c1cccc(Cl)c1Cl (stereo not shown) [2,3-dichloro-N-[3-(1-fluorocyclopropyl)-2-[6-(trifluoromethyl)-3-pyridyl]propyl]benzamide] | 3.7 nM | – |
| O=C(NCC1(c2ccc(Cl)cc2)CCOCC1)c1cccc(Cl)c1F [3-Chloro-N-[4-(4-chloro-phenyl)-tetrahydro-pyran-4-ylmethyl]-2-fluoro-benzamide] | 890 nM | – |
| COc1ccccc1C(=O)NCC(CC1CC1)c1ccc(C(F)(F)F)nc1 (single isomer, unassigned) [Example 4p, (+)—N-(3-cyclopropyl-2-(6-(trifluoromethyl)pyridin-3-yl)propyl)-2-methoxybenzamide] | – | 990 nM |
| COc1cccc(C(=O)NCC2(c3ccc(C(F)(F)F)nc3)CCC(F)(F)CC2)c1Cl [2-chloro-N-((4,4-difluoro-1-(6-(trifluoromethyl)pyridin-3-yl)cyclohexyl)methyl)-3-methoxybenzamide] | 7.1 nM | – |
| O=C(NCC(CC1CC1)c1cncc(Cl)c1)c1cccc(Cl)c1Cl (stereo not shown) [2,3-dichloro-N-(2-(5-chloropyridin-3-yl)-3-cyclopropylpropyl)benzamide] | 5.5 nM | – |
| O=C(NCC(c1cnc(C(F)(F)F)nc1)C1CCC(F)(F)CC1)c1cccc(Cl)c1Cl (single isomer, unassigned; (+)) [(+)2,3-dichloro-N-[2-(4,4-difluorocyclohexyl)-2-[2-(trifluor] [(+)2,3-dichloro-N-[2-(4,4-difluorocyclohexyl)-2-[2-(trifluoromethyl)pyrimidin-5-yl]ethyl]benzamide] | 5.7 nM | – |
| O=C(NCC(CC1CC1)c1cnc(C(F)(F)F)nc1)c1c(F)cccc1Cl (single isomer, unassigned; (+)) [(+)2-chloro-N-[3-cyclopropyl-2-[2-(trifluoromethyl)pyrimidin] [(+)2-chloro-N-[3-cyclopropyl-2-[2-(trifluoromethyl)pyrimidin-5-yl]propyl]-6-fluoro-benzamide] | 41 nM | – |
| O=C(NCC(CC1(C(F)F)CC1)c1ccc(C(F)(F)F)nc1)c1cccc(Cl)c1Cl (stereo not shown) [2,3-dichloro-N-[3-[1-(difluoromethyl)cyclopropyl]-2-[6-(trifluoromethyl)-3-pyridyl]propyl]benzamide] | 1.6 nM | – |
| O=C(NCC(CC1CC1)c1cnc(C(F)(F)F)nc1)c1cccc(Cl)c1Cl (stereo not shown) [2,3-dichloro-N-[3-cyclopropyl-2-[2-(trifluoromethyl)pyrimidi] [2,3-dichloro-N-[3-cyclopropyl-2-[2-(trifluoromethyl)pyrimidin-5-yl]propyl]benzamide] | 0.88 nM | – |
| O=C(NCC1(c2ccc(Cl)cc2)CCOCC1)c1c(Cl)cccc1Cl [2,6-Dichloro-N-[4-(4-chloro-phenyl)-tetrahydro-pyran-4-ylmethyl]-benzamide] | 360 nM | – |
| O=C(NCC(c1cnc(C(F)(F)F)nc1)C1CCOCC1)c1cccc(F)c1Cl (single isomer, unassigned; (-)) [(−)2-chloro-3-fluoro-N-[2-tetrahydropyran-4-yl-2-[2-(trifluo] [(−)2-chloro-3-fluoro-N-[2-tetrahydropyran-4-yl-2-[2-(trifluoromethyl)pyrimidin-5-yl]ethyl]benzamide] | 64 nM | – |
| COc1ccc(C2(CNC(=O)c3cc(C)ccc3Cl)CCCC2)cc1 [2-Chloro-N-[1-(4-methoxy-phenyl)-cyclopentylmethyl]-5-methyl-benzamide] | 190 nM | – |
| COc1ccc(Cl)c(C(=O)NCC2(c3ccc(F)nc3)CCC(F)(F)CC2)c1 [2-chloro-N-((4,4-difluoro-1-(6-fluoropyridin-3-yl)cyclohexyl)methyl)-5-methoxybenzamide] | 0.83 nM | – |
| Cc1ncc(C2(C(C)NC(=O)c3c(F)cccc3Cl)CCC(F)(F)CC2)cn1 (stereo not shown) [2-chloro-N-[1-[4,4-difluoro-1-(2-methylpyrimidin-5-yl)cyclohexyl]ethyl]-6-fluoro-benzamide] | 1400 nM | – |
| Cc1cccc(C(=O)NCC2(c3ccc(Cl)cc3)CCOCC2)c1C [N-[4-(4-Chloro-phenyl)-tetrahydro-pyran-4-ylmethyl]-2,3-dimethyl-benzamide] | 170 nM | – |
| O=C(NCC(CC1(C(F)F)CC1)c1ccc(C2CC2)nc1)c1cccc(Cl)c1Cl (stereo not shown) [2,3-dichloro-N-[2-(6-cyclopropyl-3-pyridyl)-3-[1-(difluoromethyl)cyclopropyl]propyl]benzamide] | 0.76 nM | – |
